Laboratory results reported in patent US7691382B2, “Antiviral polypeptides comprising tandem repeats of APOE 141-149 and variants thereof” (priority 2003, dated 2010).
Peptide text beside a SMILES is read from it.

Tested on: HSV1
Assay type: cell-based, Human herpes simplex virus type 1
Settings: for efficacy for reducing HSV1 infectivity (in words): Examples 2 and 3
Procedure: African Green Monkey Kidney (Vero) cells were maintained in Eagle's minimum essential medium with Earle's salt (EMEM) and supplemented with 10% foetal calf serum (heat-inactivated), 4 mM L-glutamine, and 1% (v/v) nonessential amino acids, plus penicillin and streptomycin (100 IU/mg and […], respectively) (maintenance medium referred to as 10% EMEM). The cells were incubated at 37° C. in a humidified atmosphere of air with 5% CO2.
On harvesting, monolayers were washed in phosphate-buffered saline (PBS), and dislodged by incubating with trypsin in PBS for 30 min, before inactivating trypsin by addition of an equal volume of 10% EMEM and centrifuging at 500 g (5 min, 4° C.). Cell pellets were resuspended in 10% EMEM, prior to cell counting and seeding of 24-well plates. For antiviral assays, medium containing only 0.5% FCS was used (referred to as 0.5% EMEM).
Three separate passages of HSV1 virus were prepared by infecting Vero cells, and preparing semi-pure suspensions of virus from tissue culture supernatant and cell lysates, before freezing aliquots of virus at −85° C. Viral infectivity was assessed by carrying out plaque assays on serial dilutions of thawed aliquots (expressed in pfu/ml).
Peptides were obtained in lyophilised form from a commercial supplier (AltaBioscience, University of Birmingham or Advanced Biomedical), and were produced at 5 micromole scale. N-terminals were protected by addition of an acetyl group, and the C-terminals were protected by addition of an amide group.
Small quantities of peptide were weighed in sterile Eppendorf tubes, before addition of sufficient 0.5% EMEM to produce a 1.5 mM stock solution, which was frozen at −20° C. in aliquots.
Vero cells were seeded at 125,000 cells per well in 10% EMEM, and were incubated overnight resulting in confluent monolayers. […] Virus stocks (p3) were thawed, and diluted in 0.5% EMEM such that there were around 100 pfu in 100 μl. Each 24-well plate was inoculated separately. Firstly 100 μl of virus stock was added to the peptide or control medium arranged on a 96-well plate. This was incubated at 37° C. for ten minutes before inoculation. Medium was removed from four wells of a 24-well plate containing confluent Vero, and the 200 μl inoculum added to the appropriate well. Once all wells were treated, the 24-well plate was incubated for a further 60-80 minutes. Finally the peptide-containing inoculum was removed, and 1 ml of 1% EMEM containing 1% carboxymethylcellulose was added to each well. Plates were incubated for a further 22 hours or in some experiments 40 hours, before removal of overlay, and addition of 10% formaldehyde in PBS. After a further one hour incubation, fixative was removed, monolayers washed several times with tap water, and stained with carbol fuchsin solubilised in water. After 30 minutes stain was removed, and plates washed several times with tap water, before being air dried. Plaques were counted using an Olympus IX70 Inverting Microscope, and antiviral effect expressed as a percentage of the control value for each peptide concentration. The IC50 was calculated from plots of inhibitory effect against peptide concentration.

| Compound | IC50 [µM] | efficacy for reducing HSV1 infectivity (in words) | Apparent IC50 (HSV1, Vero cells, Table 4 (Example 2)) |
| --- | --- | --- | --- |
| CC[C@H](C)[C@H](NC(=O)[C@H](CO)NC(=O)[C@H](CO)NC(=O)[C@H](C)NC(=O)[C@H](CCCNC(=N)N)NC(=O)[C@H](CO)NC(=O)[C@H](Cc1ccccc1)NC(=O)[C@H](Cc1c[nH]cn1)NC(=O)[C@H](CC(=O)O)NC(=O)[C@H](CCC(N)=O)NC(=O)[C@H](CCSC)NC(=O)[C@@H](NC(=O)[C@H](CC(=O)O)NC(=O)[C@H](CC(C)C)NC(=O)[C@H](CCSC)NC(=O)[C@H](Cc1c[nH]cn1)NC(C)=O)C(C)C)C(=O)N[C@H](C(=O)N[C@@H](CC(=O)O)C(=O)N[C@@H](CCC(=O)O)C(=O)N[C@@H](CC(C)C)C(N)=O)[C@@H](C)CC [GIN 29] (Ac-HMLDVMQDHFSRASSIIDEL-NH2) | 38.5 | – | – |
| CC(=O)N[C@@H](CC(C)C)C(=O)N[C@@H](CCCNC(=N)N)C(=O)N[C@@H](CCCCN)C(=O)N[C@@H](CC(C)C)C(=O)N[C@@H](CCCNC(=N)N)C(=O)N[C@@H](CCCCN)C(=O)N[C@@H](CC(C)C)C(=O)N[C@@H](CCCNC(=N)N)C(=O)N[C@@H](CCCCN)C(=O)N[C@@H](CC(C)C)C(=O)N[C@@H](CCCNC(=N)N)C(=O)N[C@@H](CCCCN)C(=O)N[C@@H](CC(C)C)C(=O)N[C@@H](CCCNC(=N)N)C(=O)N[C@@H](CCCCN)C(=O)N[C@@H](CC(C)C)C(=O)N[C@@H](CCCNC(=N)N)C(=O)N[C@@H](CCCCN)C(N)=O [GIN 9] (Ac-LRKLRKLRKLRKLRKLRK-NH2) | 15.5 | had efficacy | – |
| CC(=O)N[C@@H](Cc1c[nH]c2ccccc12)C(=O)N[C@@H](CCCNC(=N)N)C(=O)N[C@@H](CCCCN)C(=O)N[C@@H](Cc1c[nH]c2ccccc12)C(=O)N[C@@H](CCCNC(=N)N)C(=O)N[C@@H](CCCCN)C(=O)N[C@@H](Cc1ccccc1)C(=O)N[C@@H](Cc1ccccc1)C(=O)N[C@@H](Cc1ccccc1)C(=O)N[C@@H](CCCNC(=N)N)C(=O)N[C@@H](CCCCN)C(=O)N[C@@H](Cc1c[nH]c2ccccc12)C(=O)N[C@@H](CCCNC(=N)N)C(=O)N[C@@H](CCCCN)C(=O)N[C@@H](CCCNC(=N)N)C(=O)N[C@@H](Cc1c[nH]c2ccccc12)C(=O)N[C@@H](Cc1c[nH]c2ccccc12)C(N)=O [MU 116] (Ac-WRKWRKFFFRKWRKRWW-NH2) | 3.3 | – | – |
| CC(=O)N[C@@H](CC(C)C)C(=O)N[C@@H](CCCNC(=N)N)C(=O)N[C@@H](CCCNC(=N)N)C(=O)N[C@@H](CC(C)C)C(=O)N[C@@H](CCCNC(=N)N)C(=O)N[C@@H](CCCNC(=N)N)C(=O)N[C@@H](CCCNC(=N)N)C(=O)N[C@@H](CC(C)C)C(=O)N[C@@H](CC(C)C)C(=O)N[C@@H](CC(C)C)C(=O)N[C@@H](CCCNC(=N)N)C(=O)N[C@@H](CCCNC(=N)N)C(=O)N[C@@H](CC(C)C)C(=O)N[C@@H](CCCNC(=N)N)C(=O)N[C@@H](CCCNC(=N)N)C(=O)N[C@@H](CCCNC(=N)N)C(=O)N[C@@H](CC(C)C)C(=O)N[C@@H](CC(C)C)C(N)=O [MU 38] (Ac-LRRLRRRLLLRRLRRRLL-NH2) | > 30 | – | – |
| CC(=O)N[C@@H](CC(C)C)C(=O)N[C@@H](CCCCN)C(=O)N[C@@H](CCCCN)C(=O)N[C@@H](CC(C)C)C(=O)N[C@@H](CCCCN)C(=O)N[C@@H](CCCCN)C(=O)N[C@@H](CCCCN)C(=O)N[C@@H](CC(C)C)C(=O)N[C@@H](CC(C)C)C(=O)N[C@@H](CC(C)C)C(=O)N[C@@H](CCCCN)C(=O)N[C@@H](CCCCN)C(=O)N[C@@H](CC(C)C)C(=O)N[C@@H](CCCCN)C(=O)N[C@@H](CCCCN)C(=O)N[C@@H](CCCCN)C(=O)N[C@@H](CC(C)C)C(=O)N[C@@H](CC(C)C)C(N)=O [MU 39] (Ac-LKKLKKKLLLKKLKKKLL-NH2) | 30 | – | – |
| CC(=O)N[C@@H](Cc1c[nH]c2ccccc12)C(=O)N[C@@H](CCCNC(=N)N)C(=O)N[C@@H](CCCCN)C(=O)N[C@@H](Cc1c[nH]c2ccccc12)C(=O)N[C@@H](CCCNC(=N)N)C(=O)N[C@@H](CCCCN)C(=O)N[C@@H](CCCNC(=N)N)C(=O)N[C@@H](Cc1c[nH]c2ccccc12)C(=O)N[C@@H](Cc1c[nH]c2ccccc12)C(=O)N[C@@H](Cc1ccccc1)C(=O)N[C@@H](CCCNC(=N)N)C(=O)N[C@@H](CCCCN)C(=O)N[C@@H](Cc1c[nH]c2ccccc12)C(=O)N[C@@H](CCCNC(=N)N)C(=O)N[C@@H](CCCCN)C(=O)N[C@@H](CCCNC(=N)N)C(=O)N[C@@H](Cc1c[nH]c2ccccc12)C(=O)N[C@@H](Cc1c[nH]c2ccccc12)C(N)=O [MU 60] (Ac-WRKWRKRWWFRKWRKRWW-NH2) | 4 | – | – |
| CC(=O)N[C@@H](Cc1c[nH]c2ccccc12)C(=O)N[C@@H](CCCNC(=N)N)C(=O)N[C@@H](CCCCN)C(=O)N[C@@H](Cc1c[nH]c2ccccc12)C(=O)N[C@@H](CCCNC(=N)N)C(=O)N[C@@H](CCCCN)C(=O)N[C@@H](CCCNC(=N)N)C(=O)N[C@@H](Cc1c[nH]c2ccccc12)C(=O)N[C@@H](Cc1c[nH]c2ccccc12)C(=O)N[C@@H](Cc1ccccc1)C(=O)N[C@@H](CCCNC(=N)N)C(=O)N[C@@H](CCCCN)C(=O)N[C@@H](Cc1ccccc1)C(=O)N[C@@H](CCCNC(=N)N)C(=O)N[C@@H](CCCCN)C(=O)N[C@@H](CCCNC(=N)N)C(=O)N[C@@H](Cc1ccccc1)C(=O)N[C@@H](Cc1ccccc1)C(N)=O [MU 117] (Ac-WRKWRKRWWFRKFRKRFF-NH2) | 3.3 | – | – |
| CC(=O)N[C@@H](CC(C)C)C(=O)N[C@@H](CCCNC(=N)N)C(=O)N[C@@H](CCCCN)C(=O)N[C@@H](CC(C)C)C(=O)N[C@@H](CCCNC(=N)N)C(=O)N[C@@H](CCCCN)C(=O)N[C@@H](CCCNC(=N)N)C(=O)N[C@@H](CC(C)C)C(=O)N[C@@H](CC(C)C)C(=O)N[C@@H](CC(C)C)C(=O)N[C@@H](CCCNC(=N)N)C(=O)N[C@@H](CCCCN)C(=O)N[C@@H](CC(C)C)C(=O)N[C@@H](CCCNC(=N)N)C(=O)N[C@@H](CCCCN)C(N)=O [GIN 4] (Ac-LRKLRKRLLLRKLRK-NH2) | 29.5 | no, or poor, efficacy | – |
| CC[C@H](C)[C@H](NC(=O)[C@@H](NC(=O)[C@H](CCCNC(=N)N)NC(=O)[C@H](CCCCN)NC(=O)[C@H](CCCNC(=N)N)NC(=O)[C@@H](NC(=O)[C@H](CCCCN)NC(=O)[C@H](CCCNC(=N)N)NC(=O)[C@@H](NC(=O)[C@@H](NC(=O)[C@@H](NC(=O)[C@H](CCCNC(=N)N)NC(=O)[C@H](CCCCN)NC(=O)[C@H](CCCNC(=N)N)NC(=O)[C@@H](NC(=O)[C@H](CCCCN)NC(=O)[C@H](CCCNC(=N)N)NC(=O)[C@@H](NC(C)=O)[C@@H](C)CC)[C@@H](C)CC)[C@@H](C)CC)[C@@H](C)CC)[C@@H](C)CC)[C@@H](C)CC)[C@@H](C)CC)C(N)=O [MU 8] (Ac-IRKIRKRIIIRKIRKRII-NH2) | > 30 | – | – |
| CSCC[C@H](NC(=O)[C@H](CCCNC(=N)N)NC(=O)[C@H](C)NC(=O)[C@H](CCCNC(=N)N)NC(=O)[C@H](CC(C)C)NC(=O)[C@H](CCCNC(=N)N)NC(=O)[C@H](CCC(=O)O)NC(=O)CNC(=O)[C@H](CCC(=O)O)NC(=O)[C@H](CCSC)NC(=O)[C@H](CCCNC(=N)N)NC(=O)[C@H](C)NC(=O)[C@H](CCCNC(=N)N)NC(=O)[C@H](CC(C)C)NC(=O)[C@H](CCCNC(=N)N)NC(=O)[C@H](CCC(=O)O)NC(=O)CNC(C)=O)C(=O)N[C@@H](CCC(=O)O)C(N)=O [GIN 14] (Ac-GERLRARMEGERLRARME-NH2) | > 40 | no, or poor, efficacy | – |
| CC(=O)N[C@@H](Cc1c[nH]c2ccccc12)C(=O)N[C@@H](CCCNC(=N)N)C(=O)N[C@@H](CCCCN)C(=O)N[C@@H](CC(C)C)C(=O)N[C@@H](CCCNC(=N)N)C(=O)N[C@@H](CCCCN)C(=O)N[C@@H](CCCNC(=N)N)C(=O)N[C@@H](CC(C)C)C(=O)N[C@@H](CC(C)C)C(=O)N[C@@H](CC(C)C)C(=O)N[C@@H](CCCNC(=N)N)C(=O)N[C@@H](CCCCN)C(=O)N[C@@H](CC(C)C)C(=O)N[C@@H](CCCNC(=N)N)C(=O)N[C@@H](CCCCN)C(=O)N[C@@H](CCCNC(=N)N)C(=O)N[C@@H](CC(C)C)C(=O)N[C@@H](CC(C)C)C(N)=O [MU 115] (Ac-WRKLRKRLLLRKLRKRLL-NH2) | 17.5 | – | – |
| RLLLRKLRKRLL [GIN 3] | – | no, or poor, efficacy | No |
